# Reference: patent US20030091978A1, “Assay for glucocorticoid receptor signalling pathway” (priority 2000, published 2003)
# Experiments:
# Type in all cases: cell-based
# [1] = test system: AP-1 driven firefly-luciferase activity; assay: A549-AP1-firefly luciferase reporter assay; conditions: A549-AP1-firefly cells, stimulation with 10 ng/ml EGF
# Protocol: Similarly the minimal region of the Interleukin-2 promoter containing 4 AP-1 binding sites was cloned upstream of the firefly luciferase gene to generate pAP1-firefly-neo
# (§1) A549 cells were maintained in 5% CO2 at 37° C. in DMEM containing 10% foetal calf serum and 2 mM L-glutamine. Cells were stably transfected with p5NFkB-firefly-neo, p3GRE-renilla-neo or pAPI-firefly-neo using electroporation procedure. […] These cell lines were maintained in DMEM containing 10% foetal calf serum, 2 mM L-glutamine and 1 mg/ml G418.
# (§2) Cells were plated into individual wells of a white 96-well viewplate at a cell density of 4×10^4/well in 100 μl of growth medium.
# This cell line can therefore be used to monitor the repression of AP-1 signalling by glucocorticoid receptor ligands.
# [2] = test system: GRE-mediated gene transcription; assay: A549-GRE-Renilla luciferase reporter assay; conditions: A549-GRE-Renilla cells
# Source text: A synthetic GR responsive promoter consisting of three copies of the consensus glucocorticoid responsive element (GRE) (AGAACAnnnTGTACC) linked to a minimal herpes simplex thymidine kinase (HSV-TK) promoter was derived from the pGRE-SEAP plasmid purchased from Clontech. This was placed upstream of the Renilla luciferase reporter gene, contained in the pRLNull vector (Promega), to create the reporter construct p3GRE-renilla. The GRE containing promoter together with the renilla luciferase gene were then subcloned into the pcDNA3 vector, deleted of the CMV promoter, in order to generate the construct p3GRE-renilla-neo.
# as §1, §2
# This cell line will provide a means of measuring direct effects of glucocorticoid receptor agonists on GRE-mediated gene transcription.
# [3] = test system: NFkB driven firefly luciferase activity; assay: A549-NFkB-firefly luciferase reporter assay (FireLITE); conditions: A549-NFkB-firefly cells, stimulation with 0.5 ng/ml TNFα
# Protocol: The firefly luciferase gene driven by a promoter containing five copies of the nuclear factor kB consensus sequence (GGGGACTTTCC) was derived from the pNF-kB-Luc plasmid, purchased from Stratagene, and subcloned into the pcDNA3 vector, deleted of the CMV promoter, in order to generate the construct p5NFkB-firefly-neo.
# as §1, §2
# The individual cell clones were first characterised for responsiveness in isolation.
molecule,measurement,setting,value
EGF: stimulatory factor used to activate AP-1 driven transcription,increase in expression of firefly luciferase,[1],2.4 fold
C[C@@H]1C[C@H]2[C@@H]3CCC4=CC(=O)C=C[C@]4(C)[C@@]3(F)[C@@H](O)C[C@]2(C)[C@@]1(O)C(=O)CO [dexamethasone],maximal stimulation above basal of renilla luciferase activity,[2],3 fold
TNFα,increase in firefly luciferase activity,[3],4.2 fold
